From US8604036B2, “Pyridazinone derivatives” (Merck Patent GmbH, priority 2008, dated 2013)

What was measured:
Met kinase [1] = target: T1, Met kinase (Homo sapiens, UniProt P08581); assay: Met kinase inhibition (cell); assay type: cell-based
Target sequence in this assay (P08581 25-1390): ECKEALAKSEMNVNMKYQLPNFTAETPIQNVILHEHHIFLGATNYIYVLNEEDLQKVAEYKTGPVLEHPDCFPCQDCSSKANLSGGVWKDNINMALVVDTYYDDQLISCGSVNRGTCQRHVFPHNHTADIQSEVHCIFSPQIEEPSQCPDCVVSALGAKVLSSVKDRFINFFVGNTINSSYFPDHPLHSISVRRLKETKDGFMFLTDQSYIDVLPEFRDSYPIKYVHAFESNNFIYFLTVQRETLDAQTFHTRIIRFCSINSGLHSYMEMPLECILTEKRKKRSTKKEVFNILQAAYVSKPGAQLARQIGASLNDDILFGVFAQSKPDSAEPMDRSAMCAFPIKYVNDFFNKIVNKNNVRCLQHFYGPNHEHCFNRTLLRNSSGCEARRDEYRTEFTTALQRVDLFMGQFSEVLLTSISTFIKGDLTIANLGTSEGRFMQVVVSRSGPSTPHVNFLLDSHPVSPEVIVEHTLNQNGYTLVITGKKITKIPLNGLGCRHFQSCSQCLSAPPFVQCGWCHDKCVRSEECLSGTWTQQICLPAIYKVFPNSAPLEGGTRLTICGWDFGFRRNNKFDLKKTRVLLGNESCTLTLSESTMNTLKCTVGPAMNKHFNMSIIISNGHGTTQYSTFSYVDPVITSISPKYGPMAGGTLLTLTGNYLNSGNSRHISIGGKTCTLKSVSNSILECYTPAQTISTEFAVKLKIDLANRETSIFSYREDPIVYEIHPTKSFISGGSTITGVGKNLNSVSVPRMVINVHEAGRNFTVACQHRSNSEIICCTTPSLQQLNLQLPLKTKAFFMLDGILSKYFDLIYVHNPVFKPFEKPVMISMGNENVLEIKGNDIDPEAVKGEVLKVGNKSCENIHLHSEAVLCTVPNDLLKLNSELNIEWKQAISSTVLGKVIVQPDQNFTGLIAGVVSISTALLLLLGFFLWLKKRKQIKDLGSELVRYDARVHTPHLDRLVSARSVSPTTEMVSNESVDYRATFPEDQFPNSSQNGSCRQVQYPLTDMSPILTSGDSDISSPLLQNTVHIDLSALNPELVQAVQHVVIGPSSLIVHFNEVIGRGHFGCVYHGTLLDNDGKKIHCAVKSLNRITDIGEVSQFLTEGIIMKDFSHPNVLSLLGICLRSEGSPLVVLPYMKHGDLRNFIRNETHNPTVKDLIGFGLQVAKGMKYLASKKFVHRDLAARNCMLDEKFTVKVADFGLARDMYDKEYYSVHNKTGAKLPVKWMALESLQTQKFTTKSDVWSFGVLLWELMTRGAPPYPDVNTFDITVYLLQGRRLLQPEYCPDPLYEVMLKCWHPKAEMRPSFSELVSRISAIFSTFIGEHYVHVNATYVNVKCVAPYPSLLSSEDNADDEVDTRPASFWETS

Met kinase [2] = target: T1, Met kinase; assay: Met kinase inhibition, flashplate method (enzyme); assay type: biochemical; design: 6His (N); purchased Upstate 14-526; host or cells: Sf21 insect cells (S. frugiperda), baculovirus
Source text: Measurement of Met Kinase Activity
According to the manufacturer's data (Met, active, upstate, catalogue No. 14-526), Met kinase is expressed for the purposes of protein production in insect cells (Sf21; S. frugiperda) and subsequent affinity-chromatographic purification as “N-terminal 6His-tagged” recombinant human protein in a baculovirus expression vector.
Flashplate Method (Met Kinase)
The test plates used are 96-well Flashplate® microtitre plates from Perkin Elmer (Cat. No. SMP200). The components of the kinase reaction described below are pipetted into the assay plate. The Met kinase and the substrate poly Ala-Glu-Lys-Tyr, (pAGLT, 6:2:5:1), are incubated for 3 hrs at room temperature with radioactively labelled ^33P-ATP in the presence and absence of test substances in a total volume of 100 μl. The reaction is terminated using 150 μl of a 60 mM EDTA solution. After incubation for a further 30 min at room temperature, the supernatants are filtered off with suction, and the wells are washed three times with 200 μl of 0.9% NaCl solution each time. The measurement of the bound radioactivity is carried out by means of a scintillation measuring instrument (Topcount NXT, Perkin-Elmer).
The full value used is the inhibitor-free kinase reaction. This should be approximately in the range 6000-9000 cpm. […] The inhibitory values (IC50) are determined using the RS1_MTS program. […]
Target sequence in this assay (P08581 974-1390 limits assumed): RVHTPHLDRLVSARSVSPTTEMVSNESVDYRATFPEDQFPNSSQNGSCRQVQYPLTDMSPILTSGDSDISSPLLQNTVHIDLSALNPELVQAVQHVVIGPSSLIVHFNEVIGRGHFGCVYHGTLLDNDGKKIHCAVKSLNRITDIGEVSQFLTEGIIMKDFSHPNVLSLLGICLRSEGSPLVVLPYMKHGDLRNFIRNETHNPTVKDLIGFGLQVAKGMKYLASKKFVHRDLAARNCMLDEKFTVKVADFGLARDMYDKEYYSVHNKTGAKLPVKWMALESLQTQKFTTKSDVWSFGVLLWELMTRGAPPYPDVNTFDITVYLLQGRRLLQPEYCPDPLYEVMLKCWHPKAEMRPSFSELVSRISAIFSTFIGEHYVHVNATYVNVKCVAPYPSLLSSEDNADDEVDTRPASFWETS

| IC50 (Met kinase [1]) [µM] | IC50 (Met kinase [2]) [µM] | SMILES |
| --- | --- | --- |
| 1 to 10 | 0.01 to 1 | Cc1ccc(-c2cccc(Cn3nc(-c4cc(F)cc(F)c4)ccc3=O)n2)nc1 [Compound A1, 6-(3,5-difluorophenyl)-2-(5′-methyl-[2,2′]bipyridinyl-6-ylmethyl)-2H-pyridazin-3-one] |
| 0.01 to 1 |  | N#Cc1cccc(-c2ccc(=O)n(Cc3cccc(-c4ncc(-c5cnn(CCN6CCCC6)c5)cn4)n3)n2)c1 [Compound A2, 3-[6-oxo-1-(6-{5-[1-(2-pyrrolidin-1-ylethyl)-1H-pyrazol-4-yl]pyrimidin-2-yl}pyridin-2-ylmethyl)-1,6-dihydropyridazin-3-yl]benzonitrile] |
